Test results taken from patent US8247458B2, “Therapeutic agent for diabetic neuropathy” (Taiho Pharmaceutical Co., Ltd., priority 2006, dated 2012).

Test system: diabetes model rats induced by STZ
Assay: von Frey test in streptozotocin-induced diabetic neuropathy model rats
Assay type: in vivo, rat
Details: vs STZ control group; for suppression effect of neuropathy (pain threshold, von Frey test): p value under 0.001%; for analgesic effect (pain threshold, threshold of the escape reaction of limb, von Frey test): first day of the measurement (first dose)
Experimental: By use of male rats with the weight of more than 160 g, 50 mg/kg of streptozotocin (STZ, Sigma-Aldrich Co.) was administered thereto intravenously at the dose of 2 mL/kg to prepare the diabetes model rats induced by STZ (Malcangio M. et al., Pain, 1998). Animals with the blood sugar level of more than 200 mg/dL were adopted as diabetes models. For the measurements of the blood sugar level, the blood (2 μL) collected from the tail vein was measured by use of a measurement chip (Glutest Sensor, Arkray, Inc.) and a portable instrument for measuring blood sugar of Glutest PRO R (Model GT-1661, Arkray, Inc.).
The pain threshold was measured by carrying out the von Frey test on both right and left foot pats of the rats by use of Dynamic Planter Aesthesiometer (Model No. 37400, Ugo Basile, Inc.), and its maximum pressure was set to be 30.0 g, and the arriving time to the maximum pressure was set to be 40 seconds. Eight days after the administration of STZ, the individuals with the pain threshold of higher than a certain level were selected and divided into the groups so that the measured pain thresholds might become even in each group. To the diabetes model rats induced by STZ was administered continuously for one week either 30 mg/kg of suplatast tosylate intraperitoneally or 100 mg/kg of the same orally, and the intraperitoneally administered group and the orally administered group were produced respectively. The diabetes model rats induced by STZ to which solvent (distilled water) was administered orally were designated to the STZ control group. Moreover, the animals of no treatment, i.e. no administration of STZ, to which solvent (distilled water) was administered orally were used as the normal control group. On the 1st, 4th and 7th days after the administration, were measured the pain thresholds of the right and left foot pats for each of the group (8 rats/group), and the analgesic effect was estimated by the threshold of the escape reaction of limb (the total of pain threshold value both of the right and left foot pats). The pain thresholds were measured from 1 to 1.5 hours after the administration, respectively. The Student's test, which is a test for every 2 groups, was applied to the significant difference test of the average value, and the significant level were shown by the following indications:
## (Normal control group vs. STZ control group): p value under 0.001%, and
** (STZ control group vs. orally administered group or intraperitoneally administered group): p value under 0.001%
The orally administered group and the intraperitoneally administered group were compared with the STZ control groups, respectively. Moreover, the STZ control groups were compared with the normal control groups, and the establishments of the diabetes neuropathy model were respectively judged.

With CCOCC(O)COc1ccc(NC(=O)CC[S+](C)C)cc1.Cc1ccc(S(=O)(=O)[O-])cc1 (racemic) [suplatast tosylate, (±)-[2-[4-(3-Ethoxy-2-hydroxypropoxy)phenylcarbamoyl]-ethyl]dimethylsulfonium p-toluenesulfonate] the “suppression effect of neuropathy (pain threshold, von Frey test)” value (“suppression effect of neuropathy” below) (30 mg/kg intraperitoneal daily, 4th day) was “significant suppression effects of neuropathy”, the “suppression effect of neuropathy” value (30 mg/kg intraperitoneal daily, 7th day) was “significant suppression effects of neuropathy” and the “analgesic effect (pain threshold, threshold of the escape reaction of limb, von Frey test)” value (30 mg/kg intraperitoneal) was “analgesic effects were not found”. For the same compound, the “suppression effect of neuropathy” value (100 mg/kg oral daily, 4th day) was “significant suppression effects of neuropathy”, the “suppression effect of neuropathy” value (100 mg/kg oral daily, 7th day) was “significant suppression effects of neuropathy” and the “analgesic effect (pain threshold, threshold of the escape reaction of limb, von Frey test)” value (100 mg/kg oral) was “analgesic effects were not found”.
